Among the data in ChEMBL document CHEMBL1136816, “Synthesis and evaluation of ether and halogenated derivatives of mannopeptimycin glycopeptide antibiotics” (2003) are MIC values, retold here.

What all share (type): functional
The test system of assay [1] is Enterococcus sp. Briefly: In vitro minimum inhibitory concentration against Enterococcus species 2-8.
The test system of assay [2] is Streptococcus sp. The experiment in a line: In vitro minimum inhibitory concentration against Streptococcus species; </=0.06-5.
The test system of assay [3] is Staphylococcus aureus. The experiment in a line: In vitro minimum inhibitory concentration against Staphylococcus aureus; 1-2.
Assay [4] concerns Enterococcus sp. The experiment in a line: In vitro minimum inhibitory concentration against Enterococcus species; 1-2.
In assay [5] the test system is Streptococcus sp. The experiment in a line: In vitro minimum inhibitory concentration against Streptococcus species.
For assay [6], the system named is Staphylococcus aureus. Briefly: In vitro minimum inhibitory concentration against Staphylococcus aureus; 0.25-1.
Assay [7] relates to Enterococcus sp. The experiment in a line: In vitro minimum inhibitory concentration against Enterococcus species; 1-4.
Assay [8] relates to Enterococcus sp. The experiment in a line: In vitro minimum inhibitory concentration against Enterococcus species; 0.25->64.
For assay [9], the system named is Streptococcus sp. Briefly: In vitro minimum inhibitory concentration against Streptococcus species; </=0.06-1.
Assay [10] relates to Staphylococcus aureus. The experiment in a line: In vitro minimum inhibitory concentration against Staphylococcus aureus; 0.5->64.
For assay [11], the system named is Enterococcus sp. The experiment in a line: In vitro minimum inhibitory concentration against Enterococcus species; 2-4.
Assay [12] has as its system Streptococcus sp. The experiment in a line: In vitro minimum inhibitory concentration against Streptococcus species; </=0.06-0.25.
Assay [13] relates to Staphylococcus aureus. Briefly: In vitro minimum inhibitory concentration against Staphylococcus aureus; 2-4.
In assay [14] the test system is Enterococcus sp. The experiment in a line: In vitro minimum inhibitory concentration against Enterococcus species; 4-64.
Assay [15] has as its system Streptococcus sp. The experiment in a line: In vitro minimum inhibitory concentration against Streptococcus species; 0.5-4.
Assay [16] relates to Staphylococcus aureus. The experiment in a line: In vitro minimum inhibitory concentration against Staphylococcus aureus; 1-8.

In brackets after ≈: the same amount, converted by molar mass. Some results are limits rather than exact numbers.

Turning to `COc1ccc2cc(COC[C@H]3O[C@H](O[C@H]4[C@H](O)[C@H](O)[C@@H](Oc5ccc(C[C@H]6NC(=O)[C@H]([C@@H](C)c7ccccc7)NC(=O)CNC(=O)[C@H](CO)NC(=O)C(C(O)[C@@H]7CN=C(N)N7[C@H]7O[C@H](CO)[C@@H](O)[C@H](O)[C@@H]7O)NC(=O)[C@H]([C@@H](O)[C@@H]7CN=C(N)N7)NC6=O)cc5)O[C@@H]4CO)[C@@H](O)[C@@H](O)[C@@H]3O)ccc2c1` (stereo partly drawn), the figures for the MIC against Enterococcus sp. [1], with Streptococcus sp. [2] and in the assay on Staphylococcus aureus [3] were 2 µg/mL (≈ 1.36 µM), ≤ 0.06 µg/mL and 1 µg/mL (≈ 0.682 µM), respectively.
With `COc1ccc2cc(CO[C@H]3[C@H](O)[C@H](O)[C@@H](O[C@H]4[C@H](O)[C@H](O)[C@@H](Oc5ccc(C[C@H]6NC(=O)[C@H]([C@@H](C)c7ccccc7)NC(=O)CNC(=O)[C@H](CO)NC(=O)[C@@H]([C@@H](O)[C@@H]7CN=C(N)N7[C@H]7O[C@H](CO)[C@@H](O)[C@H](O)[C@@H]7O)NC(=O)[C@H]([C@@H](O)[C@@H]7CN=C(N)N7)NC6=O)cc5)O[C@@H]4CO)O[C@@H]3CO)ccc2c1`, the MIC in the assay with Enterococcus sp. [4] was 1 µg/mL (≈ 0.682 µM); with Streptococcus sp. [5] it was ≤ 0.06 µg/mL; against Staphylococcus aureus [6] it was 0.25 µg/mL (≈ 0.171 µM).
As to `C[C@@H](c1ccccc1)[C@@H]1NC(=O)CNC(=O)[C@H](CO)NC(=O)[C@@H]([C@@H](O)[C@@H]2CN=C(N)N2[C@H]2O[C@H](CO)[C@@H](O)[C@H](O)[C@@H]2O)NC(=O)[C@H]([C@@H](O)[C@@H]2CN=C(N)N2)NC(=O)[C@@H](Cc2ccc(O[C@H]3O[C@H](CO)[C@@H](O[C@H]4O[C@H](COCc5ccc(OCc6ccccc6)cc5)[C@@H](O)[C@H](O)[C@@H]4O)[C@H](O)[C@@H]3O)cc2)NC1=O`, the results for the MIC against Enterococcus sp. [7], in the assay on Streptococcus sp. [5] and against Staphylococcus aureus [3] were 1 µg/mL (≈ 0.67 µM), ≤ 0.06 µg/mL and 1 µg/mL (≈ 0.67 µM), respectively.
On to `CCN1CCN(C(=O)N[C@@H](C(=O)N[C@@H]2C(=O)N3[C@@H]2SC(C)(C)[C@@H]3C(=O)O)c2ccccc2)C(=O)C1=O` [PIPERACILLIN], for which the values for the MIC in the assay on Enterococcus sp. [8], in the assay with Streptococcus sp. [9] and with Staphylococcus aureus [10] were 0.25 µg/mL (≈ 0.483 µM), ≤ 0.06 µg/mL and 0.5 µg/mL (≈ 0.966 µM), respectively.
With `COc1ccc(COC[C@H]2O[C@H](O[C@H]3[C@H](O)[C@H](O)[C@@H](Oc4ccc(C[C@H]5NC(=O)[C@H]([C@@H](C)c6ccccc6)NC(=O)CNC(=O)[C@H](CO)NC(=O)[C@@H]([C@@H](O)[C@@H]6CN=C(N)N6[C@H]6O[C@H](CO)[C@@H](O)[C@H](O)[C@@H]6O)NC(=O)[C@H]([C@@H](O)[C@@H]6CN=C(N)N6)NC5=O)cc4)O[C@@H]3CO)[C@@H](O)[C@@H](O)[C@@H]2O)cc1OCc1ccccc1`, the MIC in the assay with Enterococcus sp. [11] was 2 µg/mL (≈ 1.31 µM); against Streptococcus sp. [12], ≤ 0.06 µg/mL; against Staphylococcus aureus [13], 2 µg/mL (≈ 1.31 µM).
In the case of `C[C@@H](c1ccccc1)[C@@H]1NC(=O)CNC(=O)[C@H](CO)NC(=O)[C@@H]([C@@H](O)[C@@H]2CN=C(N)N2[C@H]2O[C@H](CO)[C@@H](O)[C@H](O)[C@@H]2O)NC(=O)[C@H]([C@@H](O)[C@@H]2CN=C(N)N2)NC(=O)[C@@H](Cc2ccc(O[C@H]3O[C@H](CO)[C@@H](O[C@H]4O[C@H](COCc5cccs5)[C@@H](O)[C@H](O)[C@@H]4O)[C@H](O)[C@@H]3O)cc2)NC1=O`, the figures for the MIC in the assay on Enterococcus sp. [14], against Streptococcus sp. [15] and against Staphylococcus aureus [16] were 4 µg/mL (≈ 2.87 µM), 0.5 µg/mL (≈ 0.359 µM) and 1 µg/mL (≈ 0.719 µM), respectively.
